In ChEMBL document CHEMBL3865846, “Synthesis and biological evaluation of ricinoleic acid-based lipoamino acid derivatives” (Bioorg Med Chem Lett, 2016):
Converted amounts (≈) assume the structure as drawn.

How the values were obtained:
Type in all cases: functional
[1] = test system: Candida albicans; test: Antimicrobial activity against Candida albicans MTCC3958 measured after 24 hrs by well-diffusion method; details: MTCC3958, 24 h
[2] = test system: Bacillus subtilis; test: Bactericidal activity against Bacillus subtilis MTCC121 measured after 24 hrs; details: MTCC121, 24 h
[3] = test system: Staphylococcus aureus; test: Antimicrobial activity against Staphylococcus aureus MLS16 MTCC2940 measured after 24 hrs by well-diffusion method; details: MLS16 MTCC2940, 24 h
[4] = test system: Candida albicans; test: Antimicrobial activity against Candida albicans MTCC183 measured after 24 hrs by well-diffusion method; details: MTCC183, 24 h
[5] = test system: Micrococcus luteus; test: Bactericidal activity against Micrococcus luteus MTCC2470 measured after 24 hrs; details: MTCC2470, 24 h
[6] = test system: Escherichia coli; test: Antimicrobial activity against Escherichia coli MTCC739 measured after 24 hrs by well-diffusion method; details: MTCC739, 24 h
[7] = test system: Candida albicans; test: Antimicrobial activity against Candida albicans MTCC227 measured after 24 hrs by well-diffusion method; details: MTCC227, 24 h
[8] = test system: Candida albicans; test: Antimicrobial activity against Candida albicans MTCC4748 measured after 24 hrs by well-diffusion method; details: MTCC4748, 24 h
[9] = test system: Pseudomonas aeruginosa; test: Antimicrobial activity against Pseudomonas aeruginosa MTCCM2453 measured after 24 hrs by well-diffusion method; details: MTCCM2453, 24 h
[10] = test system: Staphylococcus aureus; test: Bactericidal activity against Staphylococcus aureus MLS16 MTCC2940 measured after 24 hrs; details: MLS16 MTCC2940, 24 h
[11] = test system: Staphylococcus aureus; test: Bactericidal activity against Staphylococcus aureus MTCC96 measured after 24 hrs; details: MTCC96, 24 h
[12] = test system: Candida albicans; test: Antimicrobial activity against Candida albicans MTCC7315 measured after 24 hrs by well-diffusion method; details: MTCC7315, 24 h
[13] = test system: Candida albicans; test: Antimicrobial activity against Candida albicans MTCC3017 measured after 24 hrs by well-diffusion method; details: MTCC3017, 24 h
[14] = test system: Staphylococcus aureus; test: Antimicrobial activity against Staphylococcus aureus MTCC96 measured after 24 hrs by well-diffusion method; details: MTCC96, 24 h
[15] = test system: Micrococcus luteus; test: Antimicrobial activity against Micrococcus luteus MTCC2470 measured after 24 hrs by well-diffusion method; details: MTCC2470, 24 h
[16] = test system: Bacillus subtilis; test: Antimicrobial activity against Bacillus subtilis MTCC121 measured after 24 hrs by well-diffusion method; details: MTCC121, 24 h
[17] = test system: Candida albicans; test: Antimicrobial activity against Candida albicans MTCC3018 measured after 24 hrs by well-diffusion method; details: MTCC3018, 24 h
[18] = test system: Raoultella planticola; test: Antimicrobial activity against Klebsiella planticola MTCC530 measured after 24 hrs by well-diffusion method; details: MTCC530, 24 h
[19] = test system: Candida albicans; test: Antimicrobial activity against Candida albicans MTCC1637 measured after 24 hrs by well-diffusion method; details: MTCC1637, 24 h
[20] = test system: Candida albicans; test: Antimicrobial activity against Candida albicans MTCC854 measured after 24 hrs by well-diffusion method; details: MTCC854, 24 h

MIC [1]	MIC [3]	MIC [4]	MIC [6]	MIC [7]	MIC [8]	MIC [9]	MIC [12]	MIC [13]	MIC [14]	MIC [15]	MIC [16]	MIC [17]	MIC [19]	MIC [20]	Compound	MBC [2]	MBC [5]	MBC [10]	MBC [11]	MIC [18]
31.2 µg/mL (≈ 76.4 µM)	31.2 µg/mL (≈ 76.4 µM)	31.2 µg/mL (≈ 76.4 µM)	> 125 µg/mL	31.2 µg/mL (≈ 76.4 µM)	31.2 µg/mL (≈ 76.4 µM)	> 125 µg/mL	31.2 µg/mL (≈ 76.4 µM)	31.2 µg/mL (≈ 76.4 µM)	15.6 µg/mL (≈ 38.2 µM)	15.6 µg/mL (≈ 38.2 µM)	15.6 µg/mL (≈ 38.2 µM)	31.2 µg/mL (≈ 76.4 µM)	31.2 µg/mL (≈ 76.4 µM)	31.2 µg/mL (≈ 76.4 µM)	CCCCCCC(C/C=C\CCCCCCCC(=O)OC)NC(=O)[C@@H]1CCCN1 (some centres undefined)	31.2 µg/mL (≈ 76.4 µM)	31.2 µg/mL (≈ 76.4 µM)	31.2 µg/mL (≈ 76.4 µM)	31.2 µg/mL (≈ 76.4 µM)	> 125 µg/mL
> 125 µg/mL	> 125 µg/mL	> 125 µg/mL	> 125 µg/mL	> 125 µg/mL	> 125 µg/mL	> 125 µg/mL	> 125 µg/mL	> 125 µg/mL	> 125 µg/mL	> 125 µg/mL	> 125 µg/mL	> 125 µg/mL	> 125 µg/mL	> 125 µg/mL	CCCCCCC(C/C=C\CCCCCCCC(=O)OC)NC(=O)[C@@H](N)CC(C)C (some centres undefined)	–	–	–	–	> 125 µg/mL
> 125 µg/mL	> 125 µg/mL	> 125 µg/mL	> 125 µg/mL	> 125 µg/mL	> 125 µg/mL	> 125 µg/mL	> 125 µg/mL	> 125 µg/mL	> 125 µg/mL	> 125 µg/mL	> 125 µg/mL	> 125 µg/mL	> 125 µg/mL	> 125 µg/mL	CCCCCCC(C/C=C\CCCCCCCC(=O)OC)NC(=O)[C@@H](N)Cc1ccccc1 (some centres undefined)	–	–	–	–	> 125 µg/mL
> 125 µg/mL	> 125 µg/mL	> 125 µg/mL	> 125 µg/mL	> 125 µg/mL	> 125 µg/mL	> 125 µg/mL	> 125 µg/mL	> 125 µg/mL	> 125 µg/mL	> 125 µg/mL	> 125 µg/mL	> 125 µg/mL	> 125 µg/mL	> 125 µg/mL	CCCCCCC(C/C=C\CCCCCCCC(=O)OC)NC(=O)[C@@H](N)Cc1c[nH]c2ccccc12 (some centres undefined)	–	–	–	–	> 125 µg/mL
> 125 µg/mL	> 125 µg/mL	> 125 µg/mL	> 125 µg/mL	> 125 µg/mL	> 125 µg/mL	> 125 µg/mL	> 125 µg/mL	> 125 µg/mL	> 125 µg/mL	> 125 µg/mL	> 125 µg/mL	> 125 µg/mL	> 125 µg/mL	> 125 µg/mL	CCCCCCC(C/C=C\CCCCCCCC(=O)OC)NC(=O)[C@@H](N)C(C)C (some centres undefined)	–	–	–	–	> 125 µg/mL
